Assay results as given in publication PMC6331789, “Phytochemicals from Ruta graveolens Activate TAS2R Bitter Taste Receptors and TRP Channels Involved in Gustation and Nociception” (Molecules, 2015).
pEC50: −log10 of the molar value. Values belong to the compound of their own block, whether it stands above or below them.

Columns and labels:
TRPM8 [1] = biological target: T1, TRPM8 (Homo sapiens, UniProt Q7Z2W7); assay: In vitro Fluo8-NW calcium assay (FLIPR) on HEK293T cells stably overexpressing TRPM8; type: cell-based; details: concentration/response curve
T1 construct: expressed in transfected cells
T1 sequence (Q7Z2W7 whole entry): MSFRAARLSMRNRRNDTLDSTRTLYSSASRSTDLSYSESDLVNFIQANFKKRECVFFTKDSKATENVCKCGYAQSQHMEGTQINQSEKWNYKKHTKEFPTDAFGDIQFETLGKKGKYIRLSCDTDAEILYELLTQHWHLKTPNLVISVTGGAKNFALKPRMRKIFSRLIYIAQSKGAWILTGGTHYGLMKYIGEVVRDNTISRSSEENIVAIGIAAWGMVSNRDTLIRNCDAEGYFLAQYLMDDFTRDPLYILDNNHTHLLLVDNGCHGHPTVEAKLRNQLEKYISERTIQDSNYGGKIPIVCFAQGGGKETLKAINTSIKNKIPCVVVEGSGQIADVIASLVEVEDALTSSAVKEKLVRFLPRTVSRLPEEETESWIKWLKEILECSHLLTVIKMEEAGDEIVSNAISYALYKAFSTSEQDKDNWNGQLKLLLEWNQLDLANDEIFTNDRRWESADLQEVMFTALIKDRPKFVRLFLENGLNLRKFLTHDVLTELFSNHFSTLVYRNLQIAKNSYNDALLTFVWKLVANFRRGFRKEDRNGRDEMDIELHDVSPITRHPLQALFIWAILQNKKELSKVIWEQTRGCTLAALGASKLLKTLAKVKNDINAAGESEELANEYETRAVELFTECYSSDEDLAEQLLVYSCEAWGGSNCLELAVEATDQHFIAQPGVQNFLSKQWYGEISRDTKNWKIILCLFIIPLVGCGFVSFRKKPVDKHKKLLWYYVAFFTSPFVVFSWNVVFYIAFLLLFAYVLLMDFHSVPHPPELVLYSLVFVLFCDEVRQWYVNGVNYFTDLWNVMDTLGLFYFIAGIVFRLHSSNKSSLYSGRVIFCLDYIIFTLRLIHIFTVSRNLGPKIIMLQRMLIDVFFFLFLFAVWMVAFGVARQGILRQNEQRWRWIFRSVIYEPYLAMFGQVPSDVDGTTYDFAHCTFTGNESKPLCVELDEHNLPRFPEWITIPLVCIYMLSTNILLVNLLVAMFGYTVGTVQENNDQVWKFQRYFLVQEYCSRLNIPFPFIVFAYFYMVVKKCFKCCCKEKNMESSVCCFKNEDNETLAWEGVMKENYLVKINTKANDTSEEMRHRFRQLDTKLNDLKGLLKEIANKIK
Source text: (§1) Pure phytochemicals were submitted to in vitro assays with a platform of twenty cloned receptors of the bitter taste TAS2R family and four receptors of the TRP family related to the perception of taste and somatosensory sensations. All experiments have been repeated three times, each time with four replicates. […] For simplicity, only those bitter taste receptors having reproducible positive assay, namely TASR10, 14 and 49, are reported (Table 1).
(§2) For those compounds showing activity on one or more receptor(s), the concentration/response curves were plotted and the EC50 calculated.
(§3) For the biological tests, several compounds were purchased as references from different suppliers (Sigma Aldrich, ChromaDex, Irvine, CA, USA, and Tocris Bioscience, Bristol, UK) and dissolved in assay buffer (130 mM NaCl, 5 mM KCl, 1 mM MgCl2, 2 mM CaCl2, 5 mM NaHCO3 and 20 mM HEPES, pH 7.4) or in a mixture of assay buffer and DMSO, never exceeding a final DMSO concentration of 0.5% (v/v) to avoid toxic effects and possible artefacts on transfected cells.
(§4) All human TAS2R and G15Gi1 cDNAs were produced as reported in Bassoli et al. cDNAs for human TRPA1-M5-M8-V1-V4 were cloned into a pcDNA6 expression vector (Invitrogen-Thermo Fisher, Waltham, MA, USA).
(§5) All experiments were performed using HEK293T cells (ATCC).
(§6) For TRP platform experiments, cells were cultured in MEM/EBSS medium (ECB2071L EuroClone, Milan, Italy) plus 10% (v/v) fetal bovine serum (FBS) (26400-044 Gibco, Karlsruhe, Germany) and 1% (v/v) Pen/Strep 10K/10K stock (17-602E Lonza, Basel, Switzerland). Stable cell lines were generated overexpressing each TRP channel, and clones were selected with 500 µg/mL of G418 (ant-gn-5 Invivogen, Karlsruhe, Germany). To analyze TRP receptor responses, cells were plated at a concentration of 20,000 cells/well in 384-well plates (GR-4330 Twin Helix srl, Milan, Italy). Cellular responses were measured 24 h after seeding.
For TRPA1-M8-V1-V4 experiments, a solution of Fluo8-NW calcium-sensitive dye (36316 AAT BioQuest, Sunnyvale, CA, USA) was prepared using the assaybuffer and diluting the kit components 1:2 according to the manufacturer’s instructions. Twenty-four hours after seeding, cells were incubated one hour at RT, loaded with 40 µL of Fluo8-NW solution for each well and incubated again for one hour at RT before data acquisition.
(§7) For TRPM5 experiments, cells were loaded 24 h after seeding with a Membrane Potential Dye (R8034 MDC) solution in assay buffer according to the manufacturer’s instructions and incubated at 37 °C for 1 h before acquisition. All experiments were performed using a fluorometric imaging plate reader (FLIPR^TETRA, Molecular Devices equipped with ICCD Camera from Stanford Photonics, INC, (Palo Alto, CA, USA) and kinetics were visualized with Molecular Devices’ Screenworks 3.0 (Sunnyvale, CA, USA).
(§8) For the calculation of concentration-response curves, responses were calculated as the difference between maximal and minimal relative fluorescence unit (RFU) values in a selected time window (11–60 s) and were normalized to the basal well fluorescence (Time Point 1, before compound injection) in order to compensate for differences in cell density (∆F/F0). All of the experiments have been repeated three times, each time with four replicates. All of the results are averages of at least four replicates. Raw data are available in Supplementary Material, Figures S3–S6.

TAS2R49 [2] = tested on: TAS2R49; parameters: method as in PMID 20022913; details: cited from earlier work
TRPM8 [3] = details: cited from earlier work
TAS2R14 [4] = details: cited from earlier work
TAS2R10 [5] = details: cited from earlier work; for Selective agonism of TAS2R10 (literature): described in the literature, no reference given
TRPM5 = biological target: T2, TRPM5 (Homo sapiens, UniProt Q9NZQ8); assay: In vitro membrane potential dye assay (FLIPR) on HEK293T cells stably overexpressing TRPM5; type: cell-based; details: concentration/response curve; values with ≥ estimated
T2 construct: expressed in transfected cells
T2 sequence (Q9NZQ8 1-1165): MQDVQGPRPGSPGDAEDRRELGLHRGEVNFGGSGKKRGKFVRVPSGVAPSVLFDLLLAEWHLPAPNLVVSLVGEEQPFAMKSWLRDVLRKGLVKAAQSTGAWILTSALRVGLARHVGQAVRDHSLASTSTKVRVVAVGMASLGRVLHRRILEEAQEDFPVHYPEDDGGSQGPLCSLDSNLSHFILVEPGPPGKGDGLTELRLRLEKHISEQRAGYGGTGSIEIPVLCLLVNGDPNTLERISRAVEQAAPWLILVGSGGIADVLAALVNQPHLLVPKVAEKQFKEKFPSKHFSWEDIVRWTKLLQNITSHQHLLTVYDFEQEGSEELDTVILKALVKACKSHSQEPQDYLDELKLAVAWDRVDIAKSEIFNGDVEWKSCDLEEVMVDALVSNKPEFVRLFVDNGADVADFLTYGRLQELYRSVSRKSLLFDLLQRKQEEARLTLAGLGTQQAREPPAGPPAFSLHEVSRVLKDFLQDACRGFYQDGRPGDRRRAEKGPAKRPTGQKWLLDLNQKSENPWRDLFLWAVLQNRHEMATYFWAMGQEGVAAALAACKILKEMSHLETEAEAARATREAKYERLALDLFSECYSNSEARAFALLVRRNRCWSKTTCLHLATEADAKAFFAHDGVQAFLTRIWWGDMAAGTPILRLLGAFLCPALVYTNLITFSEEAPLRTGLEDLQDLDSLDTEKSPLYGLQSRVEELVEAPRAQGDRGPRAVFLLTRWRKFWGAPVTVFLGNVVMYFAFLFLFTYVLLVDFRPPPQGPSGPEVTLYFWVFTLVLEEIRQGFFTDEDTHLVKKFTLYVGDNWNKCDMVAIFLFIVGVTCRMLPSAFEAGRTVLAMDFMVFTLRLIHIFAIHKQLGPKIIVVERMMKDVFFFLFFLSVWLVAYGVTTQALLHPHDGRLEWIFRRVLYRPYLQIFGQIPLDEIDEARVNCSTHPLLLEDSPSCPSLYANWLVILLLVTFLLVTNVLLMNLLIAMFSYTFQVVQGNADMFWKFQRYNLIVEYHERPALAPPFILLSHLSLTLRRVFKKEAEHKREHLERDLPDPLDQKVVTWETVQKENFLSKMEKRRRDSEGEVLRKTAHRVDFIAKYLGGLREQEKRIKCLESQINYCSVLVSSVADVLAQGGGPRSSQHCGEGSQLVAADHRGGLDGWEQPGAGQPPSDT
Source text: as §1, §2, §3, §4, §5, §6, §7, §8

TAS2R14 [6] = biological target: T3, TAS2R14 (Homo sapiens, UniProt Q9NYV8); assay: In vitro calcium imaging assay on cloned TAS2R14 in transfected HEK293T cells; type: cell-based
T3 construct: expressed in transfected cells; host or cells: HEK293T
T3 sequence (Q9NYV8 1-317): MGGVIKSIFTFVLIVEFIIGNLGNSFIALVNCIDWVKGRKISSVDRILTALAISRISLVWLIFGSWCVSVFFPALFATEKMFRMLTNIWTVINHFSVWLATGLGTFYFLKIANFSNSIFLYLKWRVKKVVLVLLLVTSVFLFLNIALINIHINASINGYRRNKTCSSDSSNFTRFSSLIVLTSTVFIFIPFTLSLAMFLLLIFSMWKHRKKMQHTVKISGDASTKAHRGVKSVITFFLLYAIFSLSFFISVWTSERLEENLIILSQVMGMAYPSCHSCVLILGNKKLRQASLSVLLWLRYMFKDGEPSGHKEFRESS
Source text: as §1, §2, §3, §4, §5
(§9) For the bitter platform experiments, cells were cultured, transfected and analyzed as previously described.
(§10) For the bitter platform experiments, data analyses were performed as previously described.
as §8

TAS2R49 [7] = biological target: T4, TAS2R49 (Homo sapiens, UniProt P59543); assay: In vitro calcium imaging assay on cloned TAS2R49 in transfected HEK293T cells; type: cell-based; details: concentration/response curve; read-out: EC50 TAS2R49
T4 construct: expressed in transfected cells; host or cells: HEK293T
T4 sequence (P59543 1-309): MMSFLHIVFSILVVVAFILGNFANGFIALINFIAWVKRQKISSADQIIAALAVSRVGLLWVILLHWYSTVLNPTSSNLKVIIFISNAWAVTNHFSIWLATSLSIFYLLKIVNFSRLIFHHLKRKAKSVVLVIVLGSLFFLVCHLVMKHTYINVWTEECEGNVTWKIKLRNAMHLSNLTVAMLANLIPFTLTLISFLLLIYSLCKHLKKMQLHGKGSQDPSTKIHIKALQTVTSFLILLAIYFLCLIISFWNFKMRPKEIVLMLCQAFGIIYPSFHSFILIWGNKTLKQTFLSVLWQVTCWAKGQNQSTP
Source text: as §1, §2, §3, §4, §5, §9, §10, §8

bitter taste receptor = tested on: bitter taste receptor; parameters: method as in PMID 24117141; details: cited from earlier work
TAS2R10 [8] = biological target: T5, TAS2R10 (Homo sapiens, UniProt Q9NYW0); assay: In vitro calcium imaging assay on cloned TAS2R10 in transfected HEK293T cells; type: cell-based; details: concentration/response curve; values with ≥ estimated, curve did not saturate; read-out: EC50 TAS2R10
T5 construct: expressed in transfected cells; host or cells: HEK293T
T5 sequence (Q9NYW0 1-307): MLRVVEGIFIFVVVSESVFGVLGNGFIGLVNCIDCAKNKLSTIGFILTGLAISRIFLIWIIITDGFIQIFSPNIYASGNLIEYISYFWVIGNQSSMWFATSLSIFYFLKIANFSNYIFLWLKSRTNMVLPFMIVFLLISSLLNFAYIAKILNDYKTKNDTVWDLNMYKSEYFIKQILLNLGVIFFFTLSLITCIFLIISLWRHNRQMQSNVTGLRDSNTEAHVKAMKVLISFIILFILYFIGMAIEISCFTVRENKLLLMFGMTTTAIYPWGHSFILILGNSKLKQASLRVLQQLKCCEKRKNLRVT
Source text: as §1, §2, §3, §4, §5, §9, §10, §8

pEC50 (TRPM8 [1]): 5.40
SMILES: CCNC(=O)C1CC(C)CCC1C(C)C (stereo not drawn) [WS3, reference compound]

SMILES: OC(CCCN1CCCCC1)(c1ccccc1)c1ccccc1 [diphenidol]
Agonism of TAS2R49 (literature) (TAS2R49 [2]): non-selective agonists

SMILES: CC[C@H]1CC2CN3CCc4c([nH]c5ccc(OC)cc45)[C@](C(=O)OC)(C2)[C@H]13 (stereo in doubt) [voacangine]
TRPM8 inhibition (literature) (TRPM8 [3]): potent TRPM8 inhibitor

SMILES: COc1ccc2c(c1OC)C(=O)O[C@@H]2[C@H]1c2c(cc3c(c2OC)OCO3)CCN1C [noscapine]
Selective agonism of TAS2R14 (literature) (TAS2R14 [4]; described in the literature, no reference given): selective agonist

SMILES: O=C(O)c1cc(=O)c2c(OCC(O)COc3cccc4oc(C(=O)O)cc(=O)c34)cccc2o1 [cromolyn]
Agonism of TAS2R49 (literature) (TAS2R49 [2]): non-selective agonists

SMILES: CC(=O)OC(C)(C)/C=C/C(=O)[C@](C)(O)[C@H]1[C@H](O)C[C@@]2(C)[C@@H]3CC=C4[C@@H](C=C(O)C(=O)C4(C)C)[C@]3(C)C(=O)C[C@]12C [cucurbitacin E]
Selective agonism of TAS2R10 (literature) (TAS2R10 [5]): selective agonists

SMILES: CC[C@H]1OC(=O)[C@H](C)[C@@H](O[C@H]2C[C@@](C)(OC)[C@@H](O)[C@H](C)O2)[C@H](C)[C@@H](O[C@@H]2O[C@H](C)C[C@H](N(C)C)[C@H]2O)[C@](C)(O)C[C@@H](C)C(=O)[C@H](C)[C@@H](O)[C@]1(C)O [erythromycin]
Selective agonism of TAS2R10 (literature) (TAS2R10 [5]): selective agonists

pEC50 (TRPM5): 5.37
SMILES: C[N+](C)(C)CCOC(N)=O [Carbachol, reference compound]

SMILES: COc1cccc2c1cc([N+](=O)[O-])c1c(C(=O)O)cc3c(c12)OCO3 [Aristolochic Acid, reference compound]
pEC50 (TAS2R14 [6]): 5.64

pEC50 (TAS2R49 [7]): 5.22
SMILES: Cc1nc2sccn2c(=O)c1CCN1CCC(=C(c2ccc(F)cc2)c2ccc(F)cc2)CC1 [Ritanserin, reference compound]

SMILES: O=c1cc(-c2ccc(O)c(O)c2)oc2cc(O)cc(O)c12 [luteolin]
Bitter taste receptor activation of flavonoids (literature) (bitter taste receptor): active

SMILES: O=c1c(O)c(-c2ccc(O)c(O)c2)oc2cc(O)cc(O)c12 [quercetin]
Bitter taste receptor activation of flavonoids (literature) (bitter taste receptor): still active, but with lower efficacy

SMILES: O=c1ccc2ccccc2o1 [Coumarin]
Agonism of TAS2R14 (literature) (TAS2R14 [4]): known agonist
Agonism of TAS2R10 (literature) (TAS2R10 [5]): known agonist

pEC50 (TAS2R10 [8]): 5.08
SMILES: CC[N+](CC)(CC(=O)Nc1c(C)cccc1C)Cc1ccccc1 [Denatonium Benzoate, reference compound]
